This passage reports IC50 results from ChEMBL document CHEMBL5154884, “Discovery of a Novel Src Homology-2 Domain Containing Protein Tyrosine Phosphatase-2 (SHP2) and Cyclin-Dependent Kinase 4 (CDK4) Dual Inhibitor for the Treatment of Triple-Negative Breast Cancer” (J Med Chem, 2022).

Test [1] addresses T1, Tyrosine-protein phosphatase non-receptor type 11 (Homo sapiens, UniProt Q06124).
T1 sequence (Q06124 whole entry): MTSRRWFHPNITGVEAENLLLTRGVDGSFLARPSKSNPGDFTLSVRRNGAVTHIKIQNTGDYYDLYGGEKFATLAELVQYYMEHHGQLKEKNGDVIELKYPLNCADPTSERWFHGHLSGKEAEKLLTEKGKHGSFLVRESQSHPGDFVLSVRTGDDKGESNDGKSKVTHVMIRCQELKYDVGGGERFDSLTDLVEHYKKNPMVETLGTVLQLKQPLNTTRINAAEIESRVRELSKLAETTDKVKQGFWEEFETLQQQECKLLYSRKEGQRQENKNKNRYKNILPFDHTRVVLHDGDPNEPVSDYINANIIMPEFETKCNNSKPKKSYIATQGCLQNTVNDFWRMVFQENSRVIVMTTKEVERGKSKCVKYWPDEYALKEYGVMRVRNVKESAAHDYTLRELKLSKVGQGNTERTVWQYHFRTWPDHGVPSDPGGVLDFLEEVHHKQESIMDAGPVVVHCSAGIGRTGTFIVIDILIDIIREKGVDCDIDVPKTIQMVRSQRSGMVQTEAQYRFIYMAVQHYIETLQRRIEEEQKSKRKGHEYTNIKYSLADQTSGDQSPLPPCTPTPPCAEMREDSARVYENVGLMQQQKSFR
In words: Inhibition of SHP2 (unknown origin) using DiFMUP as substrate incubated for 60 mins followed by substrate addition for 30 mins by microplate reader method.

In test [2] the target is CDK4/Cyclin D3 (Homo sapiens, UniProt P11802). In words: Inhibition of recombinant N-terminal GST/His6-fusion tagged human CDK4/Cyclin D3 expressed in Sf9 insect cells using 5-FAM-IPTSPITTTYFFFKKK as substrate preincubated for 10 mins followed by substrate addition and incubated for 3 hrs in presence of ATP by caliper mobility shift analysis.
In test [3] the test system is MDA-MB-231. Nature of the test: Antiproliferative activity against human MDA-MB-231 cells assessed as inhibition of cell growth incubated for 48 hrs by MTT assay. In kind it is functional, cell-based. The following applies: Homo sapiens, MDA-MB-231, 48 h.
In test [4] the test system is EMT6. In words: Antiproliferative activity against mouse EMT6 cells assessed as inhibition of cell growth incubated for 48 hrs by MTT assay. In kind it is functional, cell-based. The settings on record: Mus musculus, EMT6, 48 h. For orientation: Tetrazolium dyes change colour on reduction, which living cells bring about.
Test [5] concerns MDA-MB-468. Nature of the test: Antiproliferative activity against human MDA-MB-468 cells assessed as inhibition of cell growth incubated for 48 hrs by MTT assay. Format: functional, cell-based. The following applies: Homo sapiens, MDA-MB-468, 48 h.

CDK4/Cyclin D3, sequence (P11802 whole entry, the tested form may be a part): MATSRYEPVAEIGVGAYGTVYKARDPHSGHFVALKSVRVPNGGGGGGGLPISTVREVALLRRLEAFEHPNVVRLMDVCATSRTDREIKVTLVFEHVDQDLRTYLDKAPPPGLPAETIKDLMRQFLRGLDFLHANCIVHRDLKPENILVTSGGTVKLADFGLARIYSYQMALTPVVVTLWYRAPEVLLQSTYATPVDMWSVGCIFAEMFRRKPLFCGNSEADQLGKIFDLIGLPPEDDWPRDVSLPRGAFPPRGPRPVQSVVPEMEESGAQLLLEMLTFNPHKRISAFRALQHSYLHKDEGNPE
CDK4/Cyclin D3, sequence (P30281 whole entry, further chain, the tested form may be a part): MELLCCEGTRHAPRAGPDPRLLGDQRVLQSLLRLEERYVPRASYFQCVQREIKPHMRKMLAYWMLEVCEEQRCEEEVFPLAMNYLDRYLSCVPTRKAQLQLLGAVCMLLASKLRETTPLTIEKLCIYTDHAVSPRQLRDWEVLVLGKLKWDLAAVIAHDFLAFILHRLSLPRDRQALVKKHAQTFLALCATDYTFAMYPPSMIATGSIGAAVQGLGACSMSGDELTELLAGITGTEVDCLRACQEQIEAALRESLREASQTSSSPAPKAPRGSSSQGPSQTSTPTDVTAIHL

`CN(C)C(=O)c1cc2cnc(Nc3ccc(Sc4cnc(N5CCC6(CC5)Cc5ccccc5[C@H]6N)cn4)c(Cl)n3)nc2n1C1CCCC1`: the IC50 came to 34.1 nM in test [1] and 519 nM in test [2].
The like results for `Cc1nc2c(F)cc(-c3nc(Nc4ccc(Cl)c(Sc5cnc(N6CCC7(CC6)CO[C@@H](C)[C@H]7N)cn5)n4)ncc3F)cc2n1C(C)C` were, in that order, 618 nM and 212 nM.
With `Cc1nc2c(F)cc(-c3nc(Nc4ccc(Sc5cnc(N6CCC7(CC6)CO[C@@H](C)[C@H]7N)cn5)c(Cl)c4)ncc3F)cc2n1C(C)C`, the half-inhibitory concentration (IC50) was 3240 nM in test [3], 1660 nM in test [4], 7 nM in test [2] and 10300 nM in test [5].
Turning to `Cc1nc2c(F)cc(-c3nc(Nc4cnc(Sc5cnc(N6CCC7(CC6)CO[C@@H](C)[C@H]7N)cn5)c(Cl)c4)ncc3F)cc2n1C(C)C`, the figures for the IC50 in test [1] and in test [2] were 205 nM and 9.1 nM, respectively.
Take `Cc1nc2c(F)cc(-c3nc(Nc4nccc(Sc5cnc(N6CCC7(CC6)Cc6ccccc6[C@H]7N)cn5)c4Cl)ncc3F)cc2n1C(C)C`: the IC50 in test [3] stood at 4440 nM; in test [1] it was 8.2 nM; in test [4] it was 1070 nM; in test [2], 95.9 nM; in test [5], 3900 nM.
Taken in the same sequence, the figures for `Cc1nc2c(F)cc(-c3nc(Nc4cc(Sc5cnc(N6CCC7(CC6)CO[C@@H](C)[C@H]7N)cn5)ccn4)ncc3F)cc2n1C(C)C` were 5130 nM, 47.2 nM, 1100 nM, 16.1 nM and 9620 nM.
In the case of `CN(C)C(=O)c1cc2cnc(Sc3cnc(N4CCC(C)(N)CC4)cn3)nc2n1C1CCCC1`, the IC50 in test [1] and in test [2] was over 1000 nM throughout.
`Cc1nc2c(F)cc(-c3nc(Nc4ccc(Sc5cnc(N6CCC7(CC6)Cc6ccccc6[C@H]7N)cn5)c(Cl)n4)ncc3F)cc2n1C(C)C`: the values for the IC50 in test [1] and in test [2] were 673 nM and 445 nM, respectively.
With `CN(C)C(=O)c1cc2cnc(Nc3ccc(Sc4cnc(N5CCC6(CC5)Cc5ccccc5[C@H]6N)cn4)c(Cl)c3)nc2n1C1CCCC1`, the IC50 was 52.1 nM in test [1] and over 1000 nM in test [2].

The IC50 is the concentration that inhibits the measured activity by half.
